Test results published in PubChem BioAssay (NCI).
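Five compound concentrations were applied to cells in 96-well plates for 48 hours; endpoints were derived by simple linear interpolation of the resulting dose-response curve. Abbreviation: GI50, concentration required for 50% inhibition of growth. TGI denotes the concentration required for complete inhibition of growth.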

How the values were obtained:
Test in all cases: NCI anticancer screen, dose series, 48 h
NCI-H23 lung = tested on: NCI-H23 lung
TK-10 renal = tested on: TK-10 renal
OVCAR-3 ovarian = tested on: OVCAR-3 ovarian
SK-OV-3 ovarian = tested on: SK-OV-3 ovarian
NCI-H460 lung = tested on: NCI-H460 lung
MOLT-4 leukemia = tested on: MOLT-4 leukemia
NCI-H226 lung = tested on: NCI-H226 lung
UACC-62 melanoma = tested on: UACC-62 melanoma
SNB-19 CNS = tested on: SNB-19 CNS
SR leukemia = tested on: SR leukemia

SMILES	TGI (NCI-H23 lung) [µM]	TGI (TK-10 renal) [µM]	TGI (OVCAR-3 ovarian) [µM]	TGI (SK-OV-3 ovarian) [µM]	TGI (NCI-H460 lung) [µM]	TGI (MOLT-4 leukemia) [µM]	TGI (NCI-H226 lung) [µM]	TGI (UACC-62 melanoma) [µM]	TGI (SNB-19 CNS) [µM]	TGI (SR leukemia) [µM]	GI50 (NCI-H23 lung) [µM]	GI50 (TK-10 renal) [µM]	GI50 (OVCAR-3 ovarian) [µM]	GI50 (SK-OV-3 ovarian) [µM]	GI50 (NCI-H460 lung) [µM]	GI50 (MOLT-4 leukemia) [µM]	GI50 (NCI-H226 lung) [µM]	GI50 (UACC-62 melanoma) [µM]	GI50 (SNB-19 CNS) [µM]	GI50 (SR leukemia) [µM]
Cc1cc(=O)oc2c(C3=NN(C=O)C(c4ccccc4)C3)c(O)ccc12 (stereo not given)	> 100	87.9	> 100	48.2	> 100	> 100	> 100	> 100	> 91.2	> 100	–	–	–	–	–	–	–	–	–	–
COc1ccc(-n2cc(-c3cc(OC)c(OC)c(OC)c3)nc2SCc2ccc(Cl)cc2)cc1OC	> 100	> 100	> 100	> 100	> 100	> 100	> 100	> 100	> 100	> 100	> 100	> 100	> 100	> 100	> 100	> 100	> 100	35.5	> 100	> 100
CCN(C(=O)N1CCN(c2cc3c(cc2F)c(=O)c(C(=O)O)cn3C2CC2)CC1)c1nc(-c2ccccc2)cs1	29.5	53.2	9.83	6.86	> 100	–	3.74	5.62	> 100	9.92	2.79	3.37	2.61	2.1	3.11	–	1.84	2.05	3.94	1.54
CC(=O)OCCOCn1c2ccccc2c2c3c(c4c5ccccc5n(COCCOC(C)=O)c4c21)C(=O)N(Cc1ccccc1)C3=O	> 100	> 100	–	> 100	> 100	> 100	> 100	> 100	> 100	–	–	–	–	–	–	–	–	–	–	–
C#CCN(N=O)C(=O)NC(CCCCNC(=O)OCc1ccccc1)C(=O)OCc1ccccc1 (stereo not given)	> 100	86	> 100	> 100	> 100	41.5	–	> 100	> 100	–	–	–	–	–	–	–	–	–	–	–
Cc1ccc2nc(NC(=O)C(=O)C(C(=O)c3ccc4ccccc4c3)C3OC(=O)c4ccccc43)sc2c1 (stereo not given)	18.3	–	> 100	> 100	18	–	5.43	25	26.4	62.1	–	–	–	–	–	–	–	–	–	–
C=C1CCC2CC1C(C(=O)c1c[nH]c3ccccc13)=NC2(C)C (stereo not given)	> 100	–	> 100	> 100	> 100	> 100	> 100	> 100	> 100	> 100	–	–	–	–	–	–	–	–	–	–
O=C(NCCCCCCCCCCCCNC(=O)c1cnc2ccccc2n1)c1cnc2ccccc2n1	–	–	> 100	55.5	> 100	> 100	> 100	> 100	47.7	–	–	–	–	–	–	–	–	–	–	–
CCOC(=O)c1oc2c(OC)ccc3c2c1CCC3	> 100	> 100	> 100	> 100	> 100	> 100	–	> 100	> 100	> 100	–	–	–	–	–	–	–	–	–	–
CCCCC(C(=O)C(=O)Nc1ccc(C)cc1C)C(=O)C(C)C (stereo not given)	> 100	> 100	> 100	–	> 100	> 100	> 100	> 100	> 100	–	–	–	–	–	–	–	–	–	–	–
CC(=O)Nc1ccccc1-c1nc2ccccc2nc1-c1ccccc1	> 100	–	> 100	> 100	> 100	> 100	–	> 100	> 100	> 100	–	–	–	–	–	–	–	–	–	–
Clc1ccc(-c2cc(-c3ccccc3)nc(N3CCN(CCCNc4ccnc5cc(Cl)ccc45)CC3)n2)cc1	–	3.26	2.98	3.17	3.1	4.35	–	3.25	–	–	–	1.75	1.55	1.74	1.56	1.22	–	1.79	–	–
CCCCCC/C=C/C#CCCCCCCCC(=O)O	> 100	> 100	> 100	> 100	> 100	> 100	> 100	–	> 100	–	–	–	–	–	–	–	–	–	–	–
O=C1/C(=C/c2cccnc2)SC(=S)N1Cc1ccco1	> 100	10.8	10.4	> 75.9	25.1	14.3	92	> 82.3	> 100	–	–	–	–	–	–	–	–	–	–	–
CCc1cccc(C(C)C)c1NC(=O)CC1Sc2ccccc2NC1=O (stereo not given)	> 100	> 100	> 100	> 100	> 100	92.1	> 100	–	> 100	94.4	–	–	–	–	–	–	–	–	–	–
NC(CCSCC(F)(F)F)C(=O)O (stereo not given)	> 100	> 100	> 100	–	> 100	> 100	> 100	> 100	> 100	> 100	–	–	–	–	–	–	–	–	–	–
Oc1ccc2ccccc2c1CCc1c(O)ccc2ccccc12	26.1	32.5	17.4	29.4	22.2	–	33.2	21.2	32.4	32.6	–	–	–	–	–	–	–	–	–	–
COc1ccc(C(=O)/C=C/c2sc(Cl)nc2Cl)cc1	3.39	30.3	3.48	23.7	10.6	13.6	17.8	6.19	4.25	–	0.973	4.57	1.84	7.68	3.17	0.369	0.655	2.22	1.99	–
CN1CCN(CCCOc2cccc3nc(Nc4cc(Cl)cc(Cl)c4)ccc23)CC1	3.32	3.17	3.18	3.3	3.43	–	4.04	3.68	3.48	–	1.72	1.75	1.68	1.76	1.84	–	1.95	1.95	1.89	–
CC(C)N(C(=O)C12C3C4C1C1C2C3C41C(=O)C(C)(C)C)C(C)C (stereo not given)	> 100	> 100	> 100	> 100	–	> 100	–	> 100	> 100	–	–	–	–	–	–	–	–	–	–	–
